Results published in patent US10344019B2 (priority 2010, dated 2019).

Legend:
Assay type in all cases: cell-based
[1] = test system: HCV 2a JFH-1 Rluc cells (dicistronic genotype 2a JFH-1 replicon, RLuc reporter); assay: microbe, parasite or virus in culture; conditions: Hepatitis C virus, genotype 2a JFH-1 RLuc replicon; read-out: 2a JFH
In short: (§1)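 Replicon cells stably carrying the listed RLuc-encoding dicistronic replicons were seeded and treated with DMSO serial dilutions of compound (10 mM stocks) diluted into culture medium. After 72 h, cells were lysed and Renilla luciferase activity measured. EC50 was derived by non-linear regression.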

[2] = test system: HCV 4a Rluc cells (NS5A chimeric genotype 1b Con1 replicon with genotype 4a NS5A gene); assay: microbe, parasite or virus in culture; conditions: Hepatitis C virus, read-out: 4a
In short: as §1

[3] = test system: HCV 1a RLuc cells (dicistronic genotype 1a H77 replicon, RLuc reporter); assay: microbe, parasite or virus in culture; conditions: Hepatitis C virus, genotype 1a H77 RLuc replicon; read-out: 1a
In short: as §1

[4] = test system: HCV 2b Rluc cells (NS5A chimeric genotype 2a JFH-1 replicon with genotype 2b MD2b-1 NS5A gene, M31 present); assay: microbe, parasite or virus in culture; conditions: Hepatitis C virus, read-out: 2b
In short: as §1

[5] = test system: HCV 3a RLuc cells (NS5A chimeric genotype 1b Con1 replicon with consensus genotype 3a NS5A gene); assay: microbe, parasite or virus in culture; conditions: Hepatitis C virus, read-out: 3a, genotype 3a NS5A chimeric replicon
In short: as §1

[6] = test system: HCV 1b RLuc cells (dicistronic genotype 1b Con1 replicon, RLuc reporter); assay: microbe, parasite or virus in culture; conditions: Hepatitis C virus, read-out: 1b (nM)
In short: as §1

[7] = test system: HCV 2a Rluc cells (NS5A chimeric genotype 2a JFH-1 replicon with genotype 2a J6 strain NS5A gene, M31 present); assay: HCV replicon reporter assay, genotype 2a J6 (M31 present); conditions: Hepatitis C virus, read-out: 2a J6
In short: as §1

[8] = test system: Q30R in genotype 1a NS5A, 1a Rluc replicon transfected into Huh-7 cured-51 cells; assay: HCV replicon assay, resistance mutant 1a Q30R; conditions: Hepatitis C virus, Huh-7, read-out: 1a Q30R
Description: Evaluation of cell-based anti-HCV activity: Antiviral potency (EC50) was determined using a Renilla luciferase (RLuc)-based HCV replicon reporter assay. To perform the assay for genotype 1 and 2a JFH-1, HCV 1b RLuc cells (harboring a dicistronic genotype 1b Con1 replicon that encodes a RLuc reporter), or HCV 1a RLuc cells (harboring a dicistronic genotype 1a H77 replicon that encodes a RLuc reporter), or HCV 2a JFH-1 Rluc cells (harboring a dicistronic genotype 2a JFH-1 replicon that encodes a RLuc reporter) were dispensed into 384-well plates. To perform the assay for genotype 2a (with M31 present) or 2b, HCV 2a Rluc or 2b Rluc cells (both with M31 present) harboring a dicistronic NS5A chimeric genotype 2a JFH-1 replicon that encodes a RLuc reporter and either genotype 2a J6 strain NS5A gene or genotype 2b MD2b-1 NS5A gene (based on Los Alamos HCV database isolates, both with M31 present) respectively, were dispensed into 384-well plates. To perform the assay for genotype 3 and 4, HCV 3a RLuc or 4a Rluc cells harboring a dicistronic NS5A chimeric genotype 1b Con1 replicon that encodes a RLuc reporter and either a consensus genotype 3a NS5A gene or genotype 4a NS5A gene (based on Los Alamos HCV database isolates) respectively, were dispensed into 384-well plates. Compounds were re-suspended in DMSO at a concentration of 10 mM and serially diluted in DMSO either manually or using an automated pipeting instrument. Serially diluted compounds were mixed with cell culture media and added to the seeded cells. […] 72 hours later, cells were lysed and Renilla luciferase activity quantified as recommended by the manufacturer (Promega-Madison, Wis.). Non-linear regression was performed to calculate EC50 values.
To determine the antiviral potency (EC50) against resistance mutants, resistance mutations, including M28T, Q30R, Q30H, L31M, and Y93C in genotype 1a NS5A and Y93H in genotype 1b NS5A, were introduced individually into either 1a Rluc or 1b Rluc replicons described above by site directed mutagenesis. Replicon RNA of each resistant mutant was transfected into Huh-7 cured-51 cells and antiviral potency was determined on these transfected cells as described above.

Structure (SMILES)	EC50 [1]	EC50 [2]	EC50 [3]	EC50 [4]	EC50 [5]	EC50 [6]	EC50 [7]	EC50 [8]
COC[C@H]1CC[C@@H](c2ncc(-c3cc4c5c(c3)OCc3cc(-c6cnc([C@@H]7CC[C@H](COC)N7C(=O)[C@@H](NC(=O)OC)C(C)C)[nH]6)cc(c3-5)OC4)[nH]2)N1C(=O)[C@@H](NC(=O)OC)C(C)C [Example 578]	0.001 to 0.999 nM	0.001 to 0.99 nM	0.001 to 0.999 nM	> 44 nM	0.001 to 0.99 nM	0.022 nM	> 44 nM	–
CCS[C@H]1C[C@@H](c2nc3ccc4cc(-c5ccc6c(ccc7nc([C@@H]8C[C@H](COC)CN8C(=O)[C@H](NC(=O)OC)c8ccccc8)[nH]c76)c5)ccc4c3[nH]2)N(C(=O)[C@@H](NC(=O)OC)C(C)C)C1 [Example 583]	0.001 to 0.999 nM	0.001 to 0.99 nM	0.001 to 0.999 nM	0.001 to 0.999 nM	0.001 to 0.99 nM	0.018 nM	0.001 to 0.999 nM	–
COC[C@H]1C[C@@H](c2ncc(-c3ccc(-c4ccc(-c5cnc([C@@H]6CC[C@H](C)N6C(=O)[C@@H](NC(=O)OC)C(C)C)[nH]5)cc4)cc3)[nH]2)N(C(=O)[C@H](NC(=O)C2CC2)c2ccccc2)C1 [Example 591]	0.001 to 0.999 nM	0.001 to 0.99 nM	0.001 to 0.999 nM	0.001 to 0.999 nM	0.001 to 0.99 nM	0.016 nM	0.001 to 0.999 nM	–
COC[C@H]1C[C@@H](c2ncc(-c3cc4c5c(c3)OCc3cc(-c6cnc([C@@H]7CC[C@H](C)N7C(=O)[C@@H](NC(=O)OC)C(C)C)[nH]6)cc(c3-5)OC4)[nH]2)N(C(=O)[C@@H](NC(=O)OC)C(C)C)C1 [Example 595]	0.001 to 0.999 nM	0.001 to 0.99 nM	0.001 to 0.999 nM	1 to 44 nM	0.001 to 0.99 nM	0.02 nM	> 44 nM	–
COC[C@H]1C[C@@H](c2nc3ccc4cc(-c5ccc6c(ccc7nc([C@@H]8CCCN8C(=O)[C@@H](NC(=O)OC)C(C)C)[nH]c76)c5)ccc4c3[nH]2)N(C(=O)[C@H](N)c2ccccc2)C1 [Example 598]	0.001 to 0.999 nM	–	0.001 to 0.999 nM	0.001 to 0.999 nM	–	0.022 nM	0.001 to 0.999 nM	0.001 to 0.999 nM
COC[C@H]1C[C@@H](c2ncc(-c3ccc4c(c3)COc3cc5c(ccc6nc([C@@H]7CC[C@H](C)N7C(=O)[C@@H](NC(=O)OC)C(C)C)[nH]c65)cc3-4)[nH]2)N(C(=O)[C@H](NC(=O)OC)c2ccccc2)C1 [Example 599]	0.001 to 0.999 nM	–	0.001 to 0.999 nM	0.001 to 0.999 nM	0.001 to 0.99 nM	–	0.001 to 0.999 nM	0.001 to 0.999 nM
COC[C@H]1C[C@@H](c2ncc(-c3ccc4c(c3)COc3cc5c(ccc6nc([C@@H]7CC[C@H](C)N7C(=O)[C@@H](NC(=O)OC)C(C)C)[nH]c65)cc3-4)[nH]2)N(C(=O)[C@@H](NC(=O)OC)C(C)C)C1 [Example 600]	0.001 to 0.999 nM	–	0.001 to 0.999 nM	0.001 to 0.999 nM	–	0.007 nM	0.001 to 0.999 nM	0.001 to 0.999 nM
COC(=O)N[C@H](C(=O)N1[C@@H](C)CC[C@H]1c1ncc(-c2ccc3c(c2)COc2cc4c(ccc5nc([C@@H]6CCCN6C(=O)[C@@H](NC(=O)OC)[C@@H](C)OC)[nH]c54)cc2-3)[nH]1)C(C)C [Example 603]	0.001 to 0.999 nM	–	0.001 to 0.999 nM	0.001 to 0.999 nM	0.001 to 0.99 nM	–	0.001 to 0.999 nM	0.001 to 0.999 nM
COC[C@H]1C[C@@H](c2ncc(-c3ccc4c(c3)COc3cc5c(cc3-4)CCc3nc([C@@H]4CC[C@H](C)N4C(=O)[C@@H](NC(=O)OC)C(C)C)[nH]c3-5)[nH]2)N(C(=O)[C@H](NC(=O)OC)c2ccccc2)C1 [Example 608]	0.001 to 0.999 nM	–	0.001 to 0.999 nM	0.001 to 0.999 nM	–	0.017 nM	0.001 to 0.999 nM	0.001 to 0.999 nM
